Test results published in patent US6235707A, “Anticoagulant peptidyl-arginine aldehyde derivatives” (Gyogyszerkutato Intezet Kft., priority 1996, dated 2001).
pIC50: −log10 of the molar value. Read-outs that look alike come from different tables or passages of the source. Square brackets hold non-standard residues; d marks the D form. Peptide text beside a SMILES is read from it. * marks the point of attachment. dCba = N[C@H](CC1CCC1)C(=O)O; Moc = COC(=O)*

What was measured:
[1] = system: citrate plasma; assay: activated partial thromboplastin time (APTT) plasma clotting test; type: biochemical
Description: (§1) Anticoagulant activity (i.e. inhibition of the proteolytic reactions in the process) is measured by anticoagulant tests, e.g. in the thrombin time (TT), activated partial thromboplastin time (APTT) and prothrombin time (PT) tests [E. J. W. Bovie et al., Mayo Clinic Laboratory Manual of Haemostasis; W. B. Saunders Co., Philadelphia (1971)]. Plasma, inhibited in spontaneous coagulation, e.g. citrate-plasma, is made to coagulate and the required coagulation time is measured. Upon the action of anticoagulants the coagulation time is prolonged proportionally to the inhibition of the reaction(s) in the process. The anticoagulant effect can be characterised by the substance concentration required to prolong the coagulation time twofold compared to the control (IC50). The effect of anticoagulants on individual coagulant proteases is measured by the amidolytic method [R. Lottenberg et al., Methods in Enzymol. 80, 341 (1981); G. Cleason, Blood Coagulation and Fibrinolysis 5, 411 (1994)]. The isolated active factor (e.g. thrombin, fXa) and its chromogen or fluorogen peptide-amide substrate are reacted in the presence or absence of the inhibitor, resp. The enzyme inhibiting action is characterised by the inhibitory constant (IC50) measured during amidolysis.
(§2) In the TT test coagulation is initiated by the thrombin added to the citrate plasma. In the system 22 pmol/ml of thrombin is functioning and its inhibition can be measured on the fibrinogen (one of the natural substrates of thrombin) in the presence of plasma components. In the APTT and PT tests the full coagulation process takes place. Depending on the activator fX is activated either by the extrinsic or the intrinsic pathway. The generated fXa activates prothrombin to thrombin which, in turn, triggers plasma coagulation. The coagulation time is prolonged if the enzymes or one of them is inhibited by the inhibitor. In the APTT and PT tests at most 40 pmol/ml Xa can be generated (this is the full amount of factor X present in both systems) while 150 pmol/ml (APTT) and 350 pmol/ml (PT) of thrombin are generated [B. Kaiser et al., Thromb. Res. 65, 157 (1992)].
(§3) The in vitro anticoagulant effects of the compounds of general formula (I) was measured by the prothrombin time (PT), activated partial thromboplastin time (APTT) and thrombin time (TT) tests [D. Bagdy et al., Thromb. Haemost. 67, 325 (1992)]. The fxa-inhibiting effect of the compounds was also determined using the Bz-Ile-Glu-Gly-Arg-pNA chromogen substrate (see method M6).

[2] = molecular target: thrombin (Homo sapiens, UniProt P00734); assay: thrombin time (TT) plasma clotting test; type: biochemical
Description: as §1, §2, §3

[3] = molecular target: T1, isolated human fXa (Homo sapiens, UniProt P00742); assay: fXa inhibition in solution, amidolytic method on Bz-Ile-Glu-Gly-Arg-pNA chromogen substrate (Method M6); type: biochemical; settings: for pIC50: isolated human fXa, Bz-Ile-Glu-Gly-Arg-pNA
T1 construct: The isolated active factor (e.g. thrombin, fXa) and its chromogen or fluorogen peptide-amide substrate are reacted; purchased SIGMA
T1 sequence (P00742 235-488 limits assumed): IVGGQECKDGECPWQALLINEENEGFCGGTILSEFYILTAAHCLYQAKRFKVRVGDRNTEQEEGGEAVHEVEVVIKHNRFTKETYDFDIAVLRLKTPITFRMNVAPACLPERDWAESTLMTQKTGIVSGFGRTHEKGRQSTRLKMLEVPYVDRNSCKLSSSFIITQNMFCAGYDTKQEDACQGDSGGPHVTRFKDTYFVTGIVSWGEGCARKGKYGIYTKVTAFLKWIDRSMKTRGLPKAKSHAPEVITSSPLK
T1 sequence (P00742 41-179 partner limits assumed): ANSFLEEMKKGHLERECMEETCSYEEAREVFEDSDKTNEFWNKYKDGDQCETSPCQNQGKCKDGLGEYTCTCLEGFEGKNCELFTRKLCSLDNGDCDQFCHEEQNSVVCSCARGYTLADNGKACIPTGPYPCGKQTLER
Description: as §1, §3
Determination of Factor Xa Inhibition in Solution on a 96-well Microtitre Plate
a) By means of phosphate buffer (0.1M sodium phosphate and 0.05M sodium chloride, pH=7.4) 1.3 E/ml solution is prepared from human factor Xa (SIGMA), and 0.1-1.0-10 and 100 μg/ml solutions from the peptide inhibitors. The Bz-Ile-Glu-Gly-Arg-pNA substrate is used in distilled water solution ([…]).
b) From the control and the peptide inhibitor solutions (3 parallel samples of each concentration) 30-30 μl aliquots are placed into the wells. 30 μl of factor Xa, 90 μl of buffer and 150 μl of substrate are added to the peptide solution and the extinction is determined after 10 min. at 405 nm. Thereafter the steps are the same as in M2/c.

[4] = system: citrate plasma; assay: prothrombin time (PT) plasma clotting test; type: biochemical
Description: as §1, §2, §3

[5] = molecular target: T2, fibrin gel-bound thrombin (Homo sapiens, UniProt P00734); assay: inhibition of fibrin gel-bound thrombin (Methods M4, M5); type: biochemical; settings: human fibrinogen clotted with human thrombin; Tos-Gly-Pro-Arg-pNA substrate
T2 construct: purchased SIGMA
Description: (§4) Plasma-clot was obtained by recalcificating platelet-rich human plasma, and fibrin gel by clotting human fibrinogen with human thrombin. For the activity measures of fXa and thrombin Z-D-Arg-Gly-Arg-pNA or Tos-Gly-Pro-Arg-pNA substrates were used in agreement with Methods M1-M3.
Preparation of Fibrin Clots
a) To each reaction vessel 200 μl of human fibrinogen (SIGMA), 25 μl of 25 NIH/E/ml human thrombin (SIGMA) and 40 μl of 100 mM CaCl2 solution is placed and the mixtures are allowed to stand for 1 hour at 20-22° C. The fibrin clots are washed with isotonic NaCl-solution (3×2 ml) under gentle stirring to remove traces of thrombin and sedimented for 5 min. The effectiveness of the washing can be checked by the method M1/c.
Determination of Inhibition of Fibrin-clot Bound Thrombin
a) 0.1-1.0-10 and 100 μg/ml solutions are made from the peptide inhibitors with Hepes/NaCl buffer (0.001 M Hepes and 0.1 M NaCl, pH=7.4).
b) Measurements are continued according to M3/b.

[6] = molecular target: tissue plasminogen activator (tPA) (Homo sapiens, UniProt P00750); assay: fibrin-plate method, plasmin formation induced by tPA; type: biochemical; settings: for pIC50: fibrin plate, hydrolysed area reduced to 50% of control; for B: relative efficiency, tPA: related to the activity of C1 (1/IC50 = 1)
tissue plasminogen activator (tPA), sequence (P00750 36-562, species assumed): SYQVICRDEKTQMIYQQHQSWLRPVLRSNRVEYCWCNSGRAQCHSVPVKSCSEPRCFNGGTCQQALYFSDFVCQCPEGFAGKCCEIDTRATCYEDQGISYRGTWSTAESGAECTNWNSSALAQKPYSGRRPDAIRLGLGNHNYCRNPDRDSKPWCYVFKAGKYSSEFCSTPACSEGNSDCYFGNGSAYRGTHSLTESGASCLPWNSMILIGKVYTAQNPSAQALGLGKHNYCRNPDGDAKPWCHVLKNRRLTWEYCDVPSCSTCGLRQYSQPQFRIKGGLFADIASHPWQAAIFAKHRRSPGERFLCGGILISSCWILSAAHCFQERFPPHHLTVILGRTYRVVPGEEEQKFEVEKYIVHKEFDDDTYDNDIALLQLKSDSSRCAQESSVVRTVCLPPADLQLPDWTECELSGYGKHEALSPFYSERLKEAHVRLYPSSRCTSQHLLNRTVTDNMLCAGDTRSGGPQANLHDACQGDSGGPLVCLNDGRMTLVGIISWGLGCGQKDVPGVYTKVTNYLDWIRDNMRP
Excerpt: (§5) The inhibitory effect of the new compounds of the invention on plasmin (PL) as well as on plasmin formation induced by tissue plasminogen activator (tPA) and urokinase (UK) was examined by the fibrin-plate method [D. Bagdy et al.: Thromb. Haemost. 67, 325 (1992)]. Compounds C1 and C5 served as controls. […] V. Jackson et al.: J. Cardiovasc. Pharmacol. 21, 587 (1993))]. In Table 4 the results obtained with the new compounds 1 and 2 as well as those with controls C1 and C5 are presented as an example.

[7] = molecular target: urokinase (UK) (Homo sapiens, UniProt P00749); assay: fibrin-plate method, plasmin formation induced by urokinase; type: biochemical; settings: for pIC50: fibrin plate, hydrolysed area reduced to 50% of control; for B: relative efficiency, UK: related to the activity of C1 (1/IC50 = 1)
Excerpt: as §5

[8] = molecular target: plasmin (PL) (Homo sapiens, UniProt P00747); assay: fibrin-plate method, plasmin; type: biochemical; settings: for pIC50: fibrin plate, hydrolysed area reduced to 50% of control; for B: relative efficiency, PL: related to the activity of C1 (1/IC50 = 1)
plasmin (PL), sequence (P00747 581-810 limits assumed, species assumed): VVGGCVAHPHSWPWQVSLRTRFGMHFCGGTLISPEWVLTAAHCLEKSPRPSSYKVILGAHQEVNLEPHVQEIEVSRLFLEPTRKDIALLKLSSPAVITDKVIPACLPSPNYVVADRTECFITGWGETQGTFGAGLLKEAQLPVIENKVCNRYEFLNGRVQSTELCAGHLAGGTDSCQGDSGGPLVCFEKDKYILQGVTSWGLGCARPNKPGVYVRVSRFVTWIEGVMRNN
plasmin (PL), sequence (P00747 97-580 partner limits assumed, species assumed): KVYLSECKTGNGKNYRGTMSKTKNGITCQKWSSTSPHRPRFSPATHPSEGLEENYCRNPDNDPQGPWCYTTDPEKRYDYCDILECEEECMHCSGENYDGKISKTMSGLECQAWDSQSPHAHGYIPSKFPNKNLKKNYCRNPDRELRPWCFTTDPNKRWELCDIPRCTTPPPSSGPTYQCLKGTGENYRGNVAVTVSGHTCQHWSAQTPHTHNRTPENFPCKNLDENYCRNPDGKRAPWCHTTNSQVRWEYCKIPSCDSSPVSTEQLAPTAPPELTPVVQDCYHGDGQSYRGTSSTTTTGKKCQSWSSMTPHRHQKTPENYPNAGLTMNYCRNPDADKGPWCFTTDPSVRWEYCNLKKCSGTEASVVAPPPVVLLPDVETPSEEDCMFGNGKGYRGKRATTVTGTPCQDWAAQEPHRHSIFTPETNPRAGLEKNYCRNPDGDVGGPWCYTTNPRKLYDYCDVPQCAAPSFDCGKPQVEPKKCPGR
Excerpt: as §5

[9] = molecular target: T3, clot-bound thrombin (Homo sapiens, UniProt P00734); assay: inhibition of plasma clot-bound thrombin (Methods M1, M3); type: biochemical; settings: clot from platelet-rich human plasma; Tos-Gly-Pro-Arg-pNA substrate
T3 construct: from tissue; host or cells: clot of recalcified human platelet-rich plasma
Description: as §4
Preparation of Clots from Human Plasma
a) Platelet-rich plasma is prepared by centrifuging a 9:1 mixture of human blood and 3.8% sodium citrate solution for 5 min. at 240×g.
b) 200 μl platelet-rich plasma and 80 μl 40 mM CaCl2 solution are allowed to stand at room temperature for 1 hour. The thus-formed clot is washed with 6×2 ml of 0.9% NaCl solution with gentle stirring to remove the residual enzymes (thrombin and factor Xa). The washing medium is assayed for thrombin-like activity as follows:
c) To 400 μl of washing medium 100 μl of 1 mM Tos-Gly-Pro-Arg-pNA substrate solution is added, the mixture is incubated for 30 min at 37° C., then the reaction is stopped with 100 μl of 50% acetic acid. From this mixture 150 μl aliquots are applied onto a 96-well microtitre plate and the extinction coefficients are measured at 405 nm (ELISA READER SLT Laborinstrument GmbH, Austria). In case of efficient washing the extinction coefficient is smaller than 5% of that of the control.
Determination of the Inhibition of Clot-bound Thrombin
a) Solutions are made from the peptide inhibitors according to Method M2/a.
b) After draining off the washing medium the clots (Method M1) are mixed with 400 μl of peptide solution (3 parallel samples with each concentration), then the samples are incubated for 5 min. at 37° C. together with a separate 400 μl buffer serving as control. Then 100 μl […] 1 mM Tos-Gly-Pro-Arg-pNA substrate solution is added and the incubation continued for further 30 min. at 37° C. The experiment is continued according to M2/c.

[10] = C. V. Jackson et al. 1993; cited from earlier work
[11] = Table 3, twofold prolongation compared to control, read-out: A: anticoagulant IC50, APTT
[12] = Table 3, twofold prolongation compared to control, read-out: A: anticoagulant IC50, TT
[13] = Table 3, read-out: B: fXa inhibiting IC50
[14] = Table 3, twofold prolongation compared to control, read-out: A: anticoagulant IC50, PT
[15] = Table 2, concentration prolonging clotting time twofold, read-out: A: anticoagulation IC50, APTT
[16] = Table 2, concentration prolonging clotting time twofold, read-out: A: anticoagulation IC50, TT
[17] = Table 2, read-out: B: fXa inhibiting effect IC50
[18] = Table 2, concentration prolonging clotting time twofold, read-out: A: anticoagulation IC50, PT

Structure (SMILES) | pIC50 [1, 11] | pIC50 [2, 12] | pIC50 [3, 13] | pIC50 [4, 14] | B: relative efficiency, tPA [6] | B: relative efficiency, UK [7] | B: relative efficiency, PL [8] | other results
CCOC(=O)NC(CC1CCC1)C(=O)N1CCC[C@H]1C(=O)N[C@H](C=O)CCCNC(=N)N (mixture of isomers) [Example C8, Ethoxycarbonyl-3-cyclobutyl-DL-alanyl-L-prolyl-L-arginine aldehyde] | 6.30 | 6.89 | 7.17 | 5.83 | – | – | – | –
CCOC(=O)NC(CC1CCCC1)C(=O)N1CCC[C@H]1C(=O)N[C@H](C=O)CCCNC(=N)N (mixture of isomers) [Example C9, Ethoxycarbonyl-3-cyclopentyl-DL-alanyl-L-prolyl-L-arginine aldehyde] | 6.32 | 6.59 | 7.37 | 5.72 | – | – | – | –
CCOC(=O)NC(C(=O)N1CCC[C@H]1C(=O)N[C@H](C=O)CCCNC(=N)N)C1CCC1 (mixture of isomers) [Example C10, Ethoxycarbonyl-DL-cyclobutyl-glycyl-L-prolyl-L-arginine aldehyde] | 6.11 | 6.06 | 7.09 | 5.21 | – | – | – | –
COC(=O)N[C@H](CC1CCC1)C(=O)N1CCC[C@H]1C(=O)N[C@H](C=O)CCCNC(=N)N [Example 2, methoxycarbonyl-3-cyclobutyl-D-alanyl-L-prolyl-L-arginine aldehyde] (Moc-[dCba]-Pro-Arg-aldehyde) | 6.60 | 6.96 | 6.41 | 5.95 | 1.4 | 0.5 | 0.23 | pIC50 [5]: 6.19; pIC50 [6]: 4.04; activity against tPA, times lower than that of compound C5 ([6]; text b147, second of three enzymes): 4.5 times; pIC50 [7]: 3.82; activity against UK, times lower than that of compound C5 ([7]; text b147, third of three enzymes): 39 times; pIC50 [8]: 3.63; activity against PL, times lower than that of compound C5 ([8]; text b147, first of three enzymes): 3.2 times; pIC50 [9]: 6.17
CCOC(=O)N[C@H](CC1CCCC1)C(=O)N1CCC[C@H]1C(=O)N[C@H](C=O)CCCNC(=N)N [Example 4, Ethoxycarbonyl-3-cyclopentyl-D-alanyl-L-prolyl-L-arginine aldehyde] | 6.62 | 7.00 | 7.57 | 5.85 | 3.5 | 1.8 | 0.55 | pIC50 [5]: 6.17; pIC50 [6]: 4.42; pIC50 [7]: 4.34; pIC50 [8]: 4.01; pIC50 [9]: 6.31
CC(C)(C)OC(=O)N[C@H](Cc1ccccc1)C(=O)N1CCC[C@H]1C(=O)N[C@H](C=O)CCCNC(=N)N [Example C5, BOC-D-Phe-Pro-Arg-H] | – | – | – | – | 22.0 | 27.3 | 4.5 | pIC50 [1, 15]: 6.12; pIC50 [2, 16]: 6.70; antifibrinolytic effect in vivo [10]: well detectable; pIC50 [3, 17]: 6.04; fXa IC50, times lower than C1 ([3]; text b89): 10 times; pIC50 [4, 18]: 5.64
CCOC(=O)N[C@H](Cc1ccccc1)C(=O)N1CCC[C@H]1C(=O)N[C@H](C=O)CCCNC(=N)N [Example C6, Ethoxycarbonyl-3-phenyl-D-alanyl-L-prolyl-L-arginine aldehyde] | 6.42 | 6.89 | 6.04 | 5.72 | – | – | – | –
COC(=O)N[C@H](Cc1ccccc1)C(=O)N1CCC[C@H]1C(=O)N[C@H](C=O)CCCNC(=N)N [Example C7, Methoxycarbonyl-3-phenyl-D-alanyl-L-prolyl-L-arginine aldehyde] | – | – | – | – | – | – | – | pIC50 [1, 15]: 6.54; pIC50 [2, 16]: 6.70; pIC50 [3, 17]: 6.89; pIC50 [4, 18]: 5.71
